From patent US6765011B2, “7-heterocyclyl quinoline and thieno[2,3-b]pyridine derivatives useful as antagonists of gonadotropin releasing hormone” (Ortho-McNeil Pharmaceutical, Inc., priority 2000, dated 2004)
Where a name gives a salt, the structure may show the parent alone.

Columns and labels:
[1] = target: T1, membrane-bound GnRH receptor (Rattus norvegicus, UniProt P30969); experiment: GnRH Receptor Binding Assay ([125I]-histrelin competition, rat pituitary homogenate); settings: [125I]-histrelin displacement, female and male rat pituitary homogenate; values without parentheses = IC50; read-out: Binding, IC50 (B % @ 30 μM)
T1 construct: from tissue; host or cells: rat pituitary homogenate (female and male, equal mixture)
T1 sequence (P30969 1-327): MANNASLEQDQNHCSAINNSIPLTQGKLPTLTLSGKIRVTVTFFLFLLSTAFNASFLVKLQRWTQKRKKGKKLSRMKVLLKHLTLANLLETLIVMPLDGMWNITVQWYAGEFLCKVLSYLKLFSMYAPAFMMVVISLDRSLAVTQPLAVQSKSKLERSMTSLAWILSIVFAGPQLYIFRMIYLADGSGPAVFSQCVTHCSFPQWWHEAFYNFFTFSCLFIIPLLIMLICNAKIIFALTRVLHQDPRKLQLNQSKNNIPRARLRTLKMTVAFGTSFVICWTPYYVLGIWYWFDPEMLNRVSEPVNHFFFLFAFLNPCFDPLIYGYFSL
Description: GnRH Receptor Binding Assay
A homogenate prepared from an equal mixture of female and male rat pituitaries was used as the source of the membrane-bound GnRH receptor. The receptor was allowed to interact in solution with [^125I]-histrelin alone or in combination with a competitive ligand (the compound being tested). The bound radiolabeled ligand was separated from the free (unbound) radiolabeled ligand by filtration through glass filter mats using a 96-well plate harvesting system (Tomtec Mach II 96). In the absence of a competitive ligand, a maximum amount of radiolabeled ligand is bound to the receptor and trapped by the glass filter mats. […] The amount of receptor-bound [^125I]-histrelin on the filter mat was determined using a Wallac Betaplate™ Liquid Scintillation Counter. Binding was determined as follows:
B0 maximum concentration of compound
Average NSB: (NSB1+NSB2)/2
Corrected B0: Average B0−Average NSB
% inhibition of Corrected B0 (or maximum response) was calculated as follows:
% Inhibition=100−[((Actual counts per minute−Average NSB)/Corrected B0)*100]

[2] = target: T2, GnRHR (Hek 293 cells with the GnRHR gene) (Homo sapiens, UniProt P30968); experiment: LUCIFERASE Assay for GnRH (hCG promoter luciferase reporter); format: cell-based; settings: antagonist format, against 0.6 nM Histrelin
T2 construct: expressed in transfected cells; host or cells: HEK 293 cells carrying the GnRHR gene, transfected with an hCG promoter-luciferase reporter
T2 sequence (P30968 1-328): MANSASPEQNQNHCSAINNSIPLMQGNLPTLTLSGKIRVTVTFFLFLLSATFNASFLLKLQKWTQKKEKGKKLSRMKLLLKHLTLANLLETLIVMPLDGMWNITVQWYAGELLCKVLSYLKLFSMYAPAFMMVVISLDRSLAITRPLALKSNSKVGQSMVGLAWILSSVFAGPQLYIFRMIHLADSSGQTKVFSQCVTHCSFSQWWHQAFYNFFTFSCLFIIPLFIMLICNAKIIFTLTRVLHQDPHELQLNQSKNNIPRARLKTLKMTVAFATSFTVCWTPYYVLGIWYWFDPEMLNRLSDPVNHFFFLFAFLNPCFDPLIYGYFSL
Procedure: LUCIFERASE Assay for GnRH
Hek 293 cells with the GnRHR gene were transfected with the hCG promoter and the luciferase reporter system. On day 1, the cells were plated at a density of 80,000 cells per well on a Poly-D-lysine pre-coated 96 well plate. The plates were incubated at 37° C. for 24 hours. On day 2, the spent media was decanted and replaced with fresh media. Test compounds, standard and controls were added to individual wells. All the dilutions were done in 7.5% DMSO/(αMEM media. The assay was run in both agonist and antagonist format. For the antagonist format, the assay measurements were run against a standard of 0.6 nM Histrelin. On day 3, the levels of luciferase production were measured in a chemiluminescence assay using Enhanced Luciferase Assay Kit. The results were expressed as % Inhibition using the following formula: […]
RLU Relative Light Units, a measure of chemiluminescence
Agonist [RLU value(test compound)−(Background/0.6 nM Histrelin)−Background]*100
Antagonist (1−[(RLU value−(Background/0.6 nM Histrelin)−Background)*100])
The calculated percentages were plotted on a graph using Graph Pad Prizm and the IC50/EC50 values determined.

[3] = test system: rat anterior pituitary cells; experiment: Primary Pituitary Cell Culture Assay (luteinizing hormone in media after 1 nM GnRH); format: cell-based; settings: inhibition of luteinizing hormone release, male rat primary pituitary cells
Procedure: Primary Pituitary Cell Culture Assay
Male rats (between immature and adult) were sacrificed and the anterior pituitaries were collected from them. The pituitaries were dissociated and the cells were plated at a concentration of 0.33×10^6 cells/well on day 1. On day 3 the media on the cells was flushed and replaced with fresh media. The test compound was then added to the plated cells at a concentration ranging from 1 nM to 1000 nM. The plates were incubated at 37° C. at 5% CO2 for 2 days. On Day 5 the media was flushed again and replaced with fresh media. To the plates were then added test compound and 1 nM GnRH. The cells were incubated for 4 hours, the media was collected by centrifuging the plates at 1200 rpm Sorvall RT7 for 10 minutes, 900 μL of supernatant was pipetted from each well and dispensed to a 96 well plate. The deep well plates were covered and stored at […] for a day. The plates are then evaluated by ELISA ([…]) to determine the concentration of lutenizing hormone in the media. The assay was repeated at varying concentrations of the test compounds to determine IC50 values. The IC50 value is defined as the concentration of test compound at which 50% inhibition was achieved.

Structure (SMILES)	IC50 [1] [µM]	IC50 [2] [µM]	IC50 [3] [µM]
CCOC(=O)c1cn(Cc2c(F)cccc2F)c2cc(-c3ccsc3)c(CN(C)Cc3ccccc3)cc2c1=O [Compound 1, 6-(N-Benzyl-N-methylaminomethyl)-7-(thien-3-yl)-1-(2,6-difluorobenzyl)-1,4-dihydro-4-oxoquinoline-3-carboxylic Acid Ethyl Ester]	32	10	–
CCOC(=O)c1cn(Cc2c(F)cccc2F)c2cc(-c3cc4ccccc4o3)c(CN(C)Cc3ccccc3)cc2c1=O [Compound 2, 6-(N-Benzyl-N-methylaminomethyl)-7-(benzofuran-2-yl)-1-(2,6-difluorobenzyl)-1,4-dihydro-4-oxoquinoline-3-carboxylic Acid Ethylester]	–	3.26	2.43
CN(Cc1ccccc1)Cc1cc2c3n[nH]c(=O)c-3cn(Cc3c(F)cccc3F)c2cc1Br [Compound 3, 2,5-Dihydro-7-bromo-8-[[methyl(phenylmethyl)amino]methyl]-5-[(2,6-difluorophenyl)methyl]-3H-pyrazolo[4,3-c]quinolin-3-one]	16	–	–
COc1ccc(-c2sc3c(c4n[nH]c(=O)c-4cn3Cc3ccccc3OC)c2CN(C)Cc2ccccc2)cc1 [Compound 8, 2,5-Dihydro-7-(4-methoxyphenyl)-5-[(2-methoxyphenyl)methyl]-8-[[methyl(phenylmethyl)amino]methyl]-3H-pyrazolo[3,4-d]thieno[2,3-b]pyridin-3-one]	30	–	–

Next, values leading:

IC50 [1] [µM]	IC50 [2] [µM]	IC50 [3] [µM]	Structure (SMILES)
1	–	–	CN(Cc1ccccc1)Cc1cc2c3n[nH]c(=O)c-3cn(Cc3c(F)cccc3F)c2cc1-c1cc2ccccc2o1 [Compound 4, 2,5-Dihydro-7-(benzofuran-2-yl)-8-[[methyl(phenylmethyl)amino]methyl]-5-[(2,6-difluorophenyl)methyl]-3H-pyrazolo[4,3-c]quinolin-3-one]
5	–	–	CN(Cc1ccccc1)Cc1cc2c3nnc(OCc4ccccc4)c-3cn(Cc3c(F)cccc3F)c2cc1-c1cc2ccccc2o1 [Compound 5, 7-(Benzofuran-2-yl)-3-[(phenylmethyl)oxy]-5-[(2,6-difluorophenyl)methyl]-8-[[methyl(phenylmethyl)amino]methyl]-5H-pyrazolo[4,3-c]quinoline]
5	–	–	CCOc1nnc2c3cc(CN(C)Cc4ccccc4)c(-c4cc5ccccc5o4)cc3n(Cc3c(F)cccc3F)cc1-2 [Compound 6, 7-(Benzofuran-2-yl)-3-ethoxy-5-[(2,6-difluorophenyl)methyl]-8-[[methyl(phenylmethyl)amino]methyl]-5H-pyrazolo[4,3-c]quinoline HCl]
1.6	–	1.48	COc1ccc(-c2sc3c(c2CN(C)Cc2ccccc2)c(=O)c(C(=O)NN)cn3Cc2ccccc2OC)cc1 [Compound 7, 4,7-Dihydro-2-(4-methoxyphenyl)-7-[(2-methoxyphenyl)methyl]-3-[[methyl(phenylmethyl)amino]methyl]-4-oxo-thieno[2,3-b]pyridine-5-carboxylic Acid, Hydrazide bis-Hydrochloride]
